# Experimental data taken from ChEMBL document CHEMBL3390836, “Mannich- and LedererManasse-based analogues of the natural product S-(+)-curcuphenol as cancer proliferation and migration inhibitors” (Medchemcomm, 2012).
# Legend:
# HOP-92 = test: Cytotoxicity against human HOP92 cells assessed as cell growth at 10 uM after 48 hrs by SRB assay relative to control; assay type: functional; conditions: HOP-92, 48 h, read-out: Activity
# BT-549 = test: Cytotoxicity against human BT549 cells assessed as cell growth at 10 uM after 48 hrs by SRB assay relative to control; assay type: functional; conditions: BT-549, 48 h, read-out: Activity
# COLO 205 = test: Cytotoxicity against human COLO205 cells assessed as cell growth at 10 uM after 48 hrs by SRB assay relative to control; assay type: functional; conditions: COLO 205, 48 h, read-out: Activity
# Malme-3M = test: Cytotoxicity against human MALME-3M cells assessed as cell growth at 10 uM after 48 hrs by SRB assay relative to control; assay type: functional; conditions: read-out: Activity
# [1] = Cytotoxicity against human EKVX cells assessed as cell growth at 10 uM after 48 hrs by SRB assay relative to control; assay type: functional; conditions: read-out: Activity
# CAKI-1 = test: Cytotoxicity against human Caki1 cells assessed as cell growth at 10 uM after 48 hrs by SRB assay relative to control; assay type: functional; conditions: CAKI-1, 48 h, read-out: Activity
# NCI-H522 = test: Cytotoxicity against human NCI-H522 cells assessed as cell growth at 10 uM after 48 hrs by SRB assay relative to control; assay type: functional; conditions: NCI-H522, 48 h, read-out: Activity
# [2] = Cytotoxicity against human OVCAR5 cells assessed as cell growth at 10 uM after 48 hrs by SRB assay relative to control; assay type: functional; conditions: OVCAR-5, 48 h, read-out: Activity
# HT-29 = test: Cytotoxicity against human HT-29 cells assessed as cell growth at 10^-4 M after 48 hrs by SRB assay relative to control; assay type: functional; conditions: HT-29, 48 h, read-out: Activity
# MDA-MB-468 = test: Cytotoxicity against human MDA-MB-468 cells assessed as cell growth at 10 uM after 48 hrs by SRB assay relative to control; assay type: functional; conditions: MDA-MB-468, 48 h, read-out: Activity
# DU-145 [3] = test: Cytotoxicity against human DU145 cells assessed as cell growth at 10^-7 M after 48 hrs by SRB assay relative to control; assay type: functional; conditions: DU-145, 48 h, read-out: Activity
# [4] = Cytotoxicity against human HCT116 cells assessed as cell growth at 10^-8 M after 48 hrs by SRB assay relative to control; assay type: functional; conditions: HCT-116, 48 h, read-out: Activity
# SNB-19 = test: Cytotoxicity against human SNB19 cells assessed as cell growth at 10 uM after 48 hrs by SRB assay relative to control; assay type: functional; conditions: SNB-19, 48 h, read-out: Activity
# SF-295 = test: Cytotoxicity against human SF295 cells assessed as cell growth at 10 uM after 48 hrs by SRB assay relative to control; assay type: functional; conditions: SF-295, 48 h, read-out: Activity
# [5] = Cytotoxicity against human OVCAR5 cells assessed as cell growth at 10^-6 M after 48 hrs by SRB assay relative to control; assay type: functional; conditions: OVCAR-5, 48 h, read-out: Activity
# ACHN = test: Cytotoxicity against human ACHN cells assessed as cell growth at 10^-8 M after 48 hrs by SRB assay relative to control; assay type: functional; conditions: read-out: Activity
# [6] = Cytotoxicity against human HCT116 cells assessed as cell growth at 10 uM after 48 hrs by SRB assay relative to control; assay type: functional; conditions: HCT-116, 48 h, read-out: Activity
# RXF 393 = test: Cytotoxicity against human RXF393 cells assessed as cell growth at 10 uM after 48 hrs by SRB assay relative to control; assay type: functional; conditions: RXF 393, 48 h, read-out: Activity
# [7] = Cytotoxicity against human OVCAR4 cells assessed as cell growth at 10 uM after 48 hrs by SRB assay relative to control; assay type: functional; conditions: OVCAR-4, 48 h, read-out: Activity
# [8] = Cytotoxicity against human UACC62 cells assessed as cell growth at 10 uM after 48 hrs by SRB assay relative to control; assay type: functional; conditions: UACC-62, 48 h, read-out: Activity
# NCI-H460 = test: Cytotoxicity against human NCI-H460 cells assessed as cell growth at 10 uM after 48 hrs by SRB assay relative to control; assay type: functional; conditions: NCI-H460, 48 h, read-out: Activity
# SN12C = test: Cytotoxicity against human SN12C cells assessed as cell growth at 10 uM after 48 hrs by SRB assay relative to control; assay type: functional; conditions: read-out: Activity
# SK-MEL-5 = test: Cytotoxicity against human SK-MEL-5 cells after 48 hrs by SRB assay; assay type: functional; conditions: SK-MEL-5, 48 h
# [9] = Cytotoxicity against human Hs 578T cells assessed as cell growth at 10 uM after 48 hrs by SRB assay relative to control; assay type: functional; conditions: read-out: Activity
# HL-60(TB) = test: Cytotoxicity against human HL-60(TB) cells assessed as cell growth at 10 uM after 48 hrs by SRB assay relative to control; assay type: functional; conditions: HL-60, 48 h, read-out: Activity
# [10] = Cytotoxicity against human HCT15 cells after 48 hrs by SRB assay; assay type: functional; conditions: HCT-15, 48 h; for CC50: read-out: LC50 (the source's name)
# MCF7 = test: Growth inhibition of human MCF7 cells after 72 hrs by MTT assay; assay type: functional, cell-based; conditions: MCF7, 72 h
# NCI-H322M = test: Cytotoxicity against human NCI-H322M cells assessed as cell growth at 10^-8 M after 48 hrs by SRB assay relative to control; assay type: functional; conditions: read-out: Activity
# [11] = Cytotoxicity against human UO31 cells assessed as cell growth at 10 uM after 48 hrs by SRB assay relative to control; assay type: functional; conditions: UO-31, 48 h, read-out: Activity
# NCI-H23 = test: Cytotoxicity against human NCI-H23 cells assessed as cell growth at 10 uM after 48 hrs by SRB assay relative to control; assay type: functional; conditions: NCI-H23, 48 h, read-out: Activity
# SW-620 = test: Cytotoxicity against human SW620 cells assessed as cell growth at 10 uM after 48 hrs by SRB assay relative to control; assay type: functional; conditions: SW-620, 48 h, read-out: Activity
# CCRF-CEM = test: Cytotoxicity against human CCRF-CEM cells assessed as cell growth at 10 uM after 48 hrs by SRB assay relative to control; assay type: functional; conditions: read-out: Activity
# SK-MEL-2 = test: Cytotoxicity against human SK-MEL-2 cells after 48 hrs by SRB assay; assay type: functional; conditions: SK-MEL-2, 48 h
# MDA-MB-231 = test: Cytotoxicity against human MDA-MB-231 cells assessed as growth inhibition after 24 hrs by MTT assay; assay type: cell-based; conditions: MDA-MB-231, 24 h
# SR = test: Cytotoxicity against human SR cells assessed as cell growth at 10 uM after 48 hrs by SRB assay relative to control; assay type: functional; conditions: read-out: Activity
# SF-268 = test: Cytotoxicity against human SF268 cells assessed as cell growth at 10 uM after 48 hrs by SRB assay relative to control; assay type: functional; conditions: SF-268, 48 h, read-out: Activity
# DU-145 [12] = test: Cytotoxicity against human DU145 cells assessed as cell growth at 10 uM after 48 hrs by SRB assay relative to control; assay type: functional; conditions: DU-145, 48 h, read-out: Activity
structure (smiles),measurement,setting,value
COc1ccc(CCN2COc3c([C@@H](C)CCC=C(C)C)ccc(C)c3C2)cc1OC,growth at 10 µM,HOP-92,-1.29%
same,growth at 10 µM,BT-549,87.9%
same,growth at 10 µM,COLO 205,-99%
same,growth at 10 µM,Malme-3M,-78%
same,growth at 10 µM,[1],33%
same,growth at 10 µM,CAKI-1,8%
same,growth at 10 µM,NCI-H522,64.7%
same,growth at 10 µM,[2],47%
same,growth at 100 µM,HT-29,-89%
same,growth at 10 µM,MDA-MB-468,-70%
same,growth at 0.1 µM,DU-145 [3],94%
same,growth at 0.01 µM,[4],98%
same,growth at 10 µM,SNB-19,67%
same,growth at 10 µM,SF-295,-18%
same,growth at 1 µM,[5],97%
same,growth at 0.01 µM,ACHN,95%
same,growth at 10 µM,[6],-43%
same,growth at 10 µM,RXF 393,-35%
same,growth at 10 µM,[7],11%
same,growth at 10 µM,[8],19%
same,growth at 10 µM,NCI-H460,-58%
same,growth at 10 µM,SN12C,15%
same,GI50,SK-MEL-5,1.64 µM
same,LC50,SK-MEL-5,5.66 µM
same,TGI,SK-MEL-5,3.04 µM
same,growth at 10 µM,[9],21%
same,growth at 10 µM,HL-60(TB),18%
same,GI50,[10],2.84 µM
same,TGI,[10],10.4 µM
same,CC50,[10],38.2 µM
same,IC50,MCF7,6.7 µM
same,growth at 0.01 µM,NCI-H322M,87%
same,growth at 10 µM,[11],10%
same,growth at 10 µM,NCI-H23,-29%
same,growth at 10 µM,SW-620,-59%
same,growth at 10 µM,CCRF-CEM,14%
same,GI50,SK-MEL-2,1.88 µM
same,LC50,SK-MEL-2,7.79 µM
same,TGI,SK-MEL-2,3.82 µM
same,IC50,MDA-MB-231,> 20 µM
CC(C)=CCC[C@H](C)c1ccc(C)c2c1OCN(CC1CCNCC1)C2,growth at 10 µM,HOP-92,12.3%
same,growth at 10 µM,BT-549,55.8%
same,growth at 10 µM,COLO 205,75.9%
same,growth at 10 µM,Malme-3M,90%
same,growth at 10 µM,[1],81%
same,growth at 10 µM,CAKI-1,80.2%
same,growth at 10 µM,[2],76%
same,growth at 10 µM,SR,-8.52%
same,growth at 100 µM,HT-29,-66%
same,growth at 10 µM,MDA-MB-468,7.48%
same,growth at 0.1 µM,DU-145 [3],94%
same,growth at 0.01 µM,[4],100%
same,growth at 10 µM,SNB-19,73%
same,growth at 10 µM,SF-295,80%
same,growth at 1 µM,[5],85%
same,growth at 0.01 µM,ACHN,100%
same,growth at 10 µM,[6],-37.2%
same,growth at 10 µM,RXF 393,55.2%
same,growth at 10 µM,[7],86%
same,growth at 10 µM,[8],63.5%
same,growth at 10 µM,NCI-H460,24.6%
same,growth at 10 µM,SF-268,93%
same,growth at 10 µM,SN12C,47%
same,GI50,SK-MEL-5,4.97 µM
same,LC50,SK-MEL-5,49.8 µM
same,TGI,SK-MEL-5,18.3 µM
same,growth at 10 µM,[9],64.3%
same,growth at 10 µM,HL-60(TB),13.8%
same,GI50,[10],6.51 µM
same,TGI,[10],21.1 µM
same,CC50,[10],54 µM
same,IC50,MCF7,8.1 µM
same,growth at 10 µM,DU-145 [12],93.9%
same,growth at 0.01 µM,NCI-H322M,98%
same,growth at 10 µM,[11],60.5%
same,growth at 10 µM,NCI-H23,79%
same,growth at 10 µM,SW-620,28%
same,growth at 10 µM,CCRF-CEM,26.7%
same,GI50,SK-MEL-2,18.2 µM
same,LC50,SK-MEL-2,69.2 µM
same,TGI,SK-MEL-2,35.5 µM
same,IC50,MDA-MB-231,> 20 µM
